Source: ChEMBL document CHEMBL3862033 (J Med Chem, 2016)

target: Adenosine receptor A2a (Homo sapiens, UniProt P29274); assay: Displacement of [3 H]2-[p-(2-carboxyethyl)phenyl-ethylamino]-5'-N-ethylcarboxamidoadenosine from recombinant human adenosine receptor A2A expressed in HEK293 cell membranes at 10 uM after 60 mins by liquid scintillation counting method relative to control; details: not given
Sequence (P29274 whole entry): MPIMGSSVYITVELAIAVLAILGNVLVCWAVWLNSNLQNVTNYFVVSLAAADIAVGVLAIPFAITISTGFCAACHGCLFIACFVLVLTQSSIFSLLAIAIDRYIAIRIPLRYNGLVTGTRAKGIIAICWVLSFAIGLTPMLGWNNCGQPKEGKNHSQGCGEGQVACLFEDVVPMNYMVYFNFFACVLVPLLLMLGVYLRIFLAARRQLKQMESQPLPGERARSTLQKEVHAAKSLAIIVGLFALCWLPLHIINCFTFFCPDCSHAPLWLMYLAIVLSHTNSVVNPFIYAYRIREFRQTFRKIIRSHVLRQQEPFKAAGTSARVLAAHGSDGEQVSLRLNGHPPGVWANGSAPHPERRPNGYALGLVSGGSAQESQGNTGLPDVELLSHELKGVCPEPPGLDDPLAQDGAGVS

Compound | inhibition [%]
CCOC(=O)[C@@]12C[C@@H]1[C@@H](n1cnc3c(N(C)C)nc(Cl)nc31)[C@H](O)[C@@H]2O | 13

target: T1, 5-hydroxytryptamine receptor 2B (Homo sapiens, UniProt P41595); assay: biochemical; format: cell-based, HEK293; details: not given
T1 sequence (P41595 whole entry): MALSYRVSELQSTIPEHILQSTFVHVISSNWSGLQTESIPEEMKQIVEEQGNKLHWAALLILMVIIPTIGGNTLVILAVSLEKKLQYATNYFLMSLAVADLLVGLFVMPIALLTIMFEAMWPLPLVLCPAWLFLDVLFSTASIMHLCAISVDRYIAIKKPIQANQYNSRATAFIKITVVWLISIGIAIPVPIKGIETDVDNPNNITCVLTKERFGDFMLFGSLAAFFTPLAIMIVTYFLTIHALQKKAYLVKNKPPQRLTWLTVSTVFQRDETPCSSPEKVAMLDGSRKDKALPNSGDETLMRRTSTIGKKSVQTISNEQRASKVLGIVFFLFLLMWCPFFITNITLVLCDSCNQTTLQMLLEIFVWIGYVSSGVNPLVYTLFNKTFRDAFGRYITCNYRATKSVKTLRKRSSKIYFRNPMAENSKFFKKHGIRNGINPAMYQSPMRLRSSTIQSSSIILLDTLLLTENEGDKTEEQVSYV

Compound | Ki [µM]
CCOC(=O)[C@@]12C[C@@H]1[C@@H](n1cnc3c(N(C)C)nc(Cl)nc31)[C@H](O)[C@@H]2O | 0.671

target: T2, 5-hydroxytryptamine receptor 3A (Homo sapiens) (UniProt P46098); assay: Displacement of [3H]GR65630 from human 5-HT3 receptor expressed in HEK-T cell membranes at 10 uM incubated for 90 mins under dark condition by microbeta scintillation counting method relative to control; details: not given
T2 sequence (whole entry): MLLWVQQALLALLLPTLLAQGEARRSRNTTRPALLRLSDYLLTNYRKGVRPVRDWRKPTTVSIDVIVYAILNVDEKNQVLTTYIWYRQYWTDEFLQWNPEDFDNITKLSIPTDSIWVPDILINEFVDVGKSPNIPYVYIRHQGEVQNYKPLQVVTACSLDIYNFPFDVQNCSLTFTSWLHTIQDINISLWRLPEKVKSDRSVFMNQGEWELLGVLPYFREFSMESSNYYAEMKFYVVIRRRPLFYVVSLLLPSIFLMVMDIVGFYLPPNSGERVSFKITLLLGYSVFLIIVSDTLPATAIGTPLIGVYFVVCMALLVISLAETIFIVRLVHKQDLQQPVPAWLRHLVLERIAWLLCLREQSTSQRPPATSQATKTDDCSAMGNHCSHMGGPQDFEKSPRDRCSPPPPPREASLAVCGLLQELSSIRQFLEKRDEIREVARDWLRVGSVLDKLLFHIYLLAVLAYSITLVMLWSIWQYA

Compound | inhibition [%]
CCOC(=O)[C@@]12C[C@@H]1[C@@H](n1cnc3c(N(C)C)nc(Cl)nc31)[C@H](O)[C@@H]2O | < 50
Nc1ncnc2c1ncn2[C@@H]1O[C@H](C(=O)NC2CC2)[C@@H](O)[C@H]1O | < 50
CNc1nc(Cl)nc2c1ncn2[C@H]1[C@H](O)[C@H](O)[C@]2(CO)C[C@H]12 | < 50

target: T3, 5-hydroxytryptamine receptor 2C (Homo sapiens, UniProt P28335); assay: Displacement of [3H]mesulergine from human 5-HT2CR expressed in Flp-In HEK cell membranes incubated for 90 mins under dark condition by microbeta scintillation counting method; set-up: species or system HEK293; details: not given
T3 sequence (P28335 whole entry): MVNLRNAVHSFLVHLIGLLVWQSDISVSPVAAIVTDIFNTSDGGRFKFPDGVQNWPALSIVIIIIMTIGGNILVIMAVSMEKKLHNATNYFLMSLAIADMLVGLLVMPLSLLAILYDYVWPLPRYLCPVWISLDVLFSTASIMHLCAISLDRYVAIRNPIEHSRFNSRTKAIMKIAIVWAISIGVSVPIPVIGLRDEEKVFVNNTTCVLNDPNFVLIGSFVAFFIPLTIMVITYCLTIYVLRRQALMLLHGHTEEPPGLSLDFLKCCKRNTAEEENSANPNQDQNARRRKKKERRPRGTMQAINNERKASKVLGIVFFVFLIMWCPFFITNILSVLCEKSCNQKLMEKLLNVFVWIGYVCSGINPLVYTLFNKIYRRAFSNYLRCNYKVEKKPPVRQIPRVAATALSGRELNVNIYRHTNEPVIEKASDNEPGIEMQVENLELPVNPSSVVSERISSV

Compound | Ki [µM]
CCOC(=O)[C@@]12C[C@@H]1[C@@H](n1cnc3c(N(C)C)nc(Cl)nc31)[C@H](O)[C@@H]2O | 1.35

target: T1, 5-hydroxytryptamine receptor 2B; assay: not given; details: HEK293, at 10 µM

Compound | inhibition [%]
CCOC(=O)[C@@]12C[C@@H]1[C@@H](n1cnc3c(N(C)C)nc(Cl)nc31)[C@H](O)[C@@H]2O | > 50
Nc1ncnc2c1ncn2[C@@H]1O[C@H](C(=O)NC2CC2)[C@@H](O)[C@H]1O | < 10

system: not listed separately; assay: Displacement of [3H]DTG from sigma2 receptor in rat PC12 cells after 90 mins by microbeta scintillation counting method; format: cell-based; details: pc-12

Compound | Ki [µM]
Nc1ncnc2c1ncn2[C@@H]1O[C@H](C(=O)NC2CC2)[C@@H](O)[C@H]1O | 1.4
CNc1nc(Cl)nc2c1ncn2[C@H]1[C@H](O)[C@H](O)[C@]2(CO)C[C@H]12 | 2.22

target: T4, 5-hydroxytryptamine receptor 2C (Homo sapiens) (UniProt P28335); assay: Displacement of [3H]mesulergine from human 5-HT2CR expressed in Flp-In HEK cell membranes at 10 uM incubated for 90 mins under dark condition by microbeta scintillation counting method relative to control; details: HEK293
T4 sequence (whole entry): T3 sequence (P28335 whole entry)

Compound | inhibition [%]
CCOC(=O)[C@@]12C[C@@H]1[C@@H](n1cnc3c(N(C)C)nc(Cl)nc31)[C@H](O)[C@@H]2O | > 50
Nc1ncnc2c1ncn2[C@@H]1O[C@H](C(=O)NC2CC2)[C@@H](O)[C@H]1O | < 10
CNc1nc(Cl)nc2c1ncn2[C@H]1[C@H](O)[C@H](O)[C@]2(CO)C[C@H]12 | > 50

target: T5, 5-hydroxytryptamine receptor 2A (Homo sapiens, UniProt P28223); assay: Displacement of [3H]ketanserin from human 5-HT2A receptor expressed in HEK-T cell membranes at 10 uM incubated for 90 mins under dark condition by microbeta scintillation counting method relative to control; details: not given
T5 sequence (P28223 whole entry): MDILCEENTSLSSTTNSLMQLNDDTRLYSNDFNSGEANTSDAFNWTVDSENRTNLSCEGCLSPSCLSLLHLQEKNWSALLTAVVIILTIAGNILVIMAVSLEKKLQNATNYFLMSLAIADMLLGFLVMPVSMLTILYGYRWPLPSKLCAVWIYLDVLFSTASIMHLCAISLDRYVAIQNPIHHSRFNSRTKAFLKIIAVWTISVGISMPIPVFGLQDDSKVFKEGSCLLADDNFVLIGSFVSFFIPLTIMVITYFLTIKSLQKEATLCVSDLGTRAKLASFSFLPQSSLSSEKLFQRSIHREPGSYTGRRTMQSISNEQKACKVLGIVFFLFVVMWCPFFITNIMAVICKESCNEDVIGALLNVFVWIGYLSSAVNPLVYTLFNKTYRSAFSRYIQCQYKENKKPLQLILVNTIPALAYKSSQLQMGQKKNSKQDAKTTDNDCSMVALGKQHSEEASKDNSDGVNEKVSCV

Compound | inhibition [%]
CCOC(=O)[C@@]12C[C@@H]1[C@@H](n1cnc3c(N(C)C)nc(Cl)nc31)[C@H](O)[C@@H]2O | < 10
Nc1ncnc2c1ncn2[C@@H]1O[C@H](C(=O)NC2CC2)[C@@H](O)[C@H]1O | < 10
CNc1nc(Cl)nc2c1ncn2[C@H]1[C@H](O)[C@H](O)[C@]2(CO)C[C@H]12 | < 10

target: 5-hydroxytryptamine receptor 1D (Homo sapiens) (UniProt P28221); assay: Displacement of [3H]5-CT from human 5-HT1D receptor expressed in HEK-T cell membranes at 10 uM incubated for 90 mins under dark condition by microbeta scintillation counting method relative to control; details: not given
Sequence (P28221 whole entry): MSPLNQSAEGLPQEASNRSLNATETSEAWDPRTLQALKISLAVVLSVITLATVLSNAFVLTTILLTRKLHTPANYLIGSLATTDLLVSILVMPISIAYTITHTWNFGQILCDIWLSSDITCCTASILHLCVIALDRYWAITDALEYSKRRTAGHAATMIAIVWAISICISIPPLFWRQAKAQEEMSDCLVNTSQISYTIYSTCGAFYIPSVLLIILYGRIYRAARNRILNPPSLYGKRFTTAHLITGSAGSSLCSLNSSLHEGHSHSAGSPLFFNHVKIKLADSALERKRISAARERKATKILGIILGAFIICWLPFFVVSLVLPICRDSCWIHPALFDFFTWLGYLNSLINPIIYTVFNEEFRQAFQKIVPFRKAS

Compound | inhibition [%]
CCOC(=O)[C@@]12C[C@@H]1[C@@H](n1cnc3c(N(C)C)nc(Cl)nc31)[C@H](O)[C@@H]2O | < 50
Nc1ncnc2c1ncn2[C@@H]1O[C@H](C(=O)NC2CC2)[C@@H](O)[C@H]1O | < 50
CNc1nc(Cl)nc2c1ncn2[C@H]1[C@H](O)[C@H](O)[C@]2(CO)C[C@H]12 | < 50

target: Adenosine receptor A3 (Homo sapiens) (UniProt P0DMS8); assay: Displacement of [125l]N 6-(4-amino-3-iodobenzyl)adenosine-5'-N-methyluronamide from recombinant human A3AR expressed in CHO cell membranes at 10 uM after 60 mins by gamma counting method relative to control; details: not given
Sequence (P0DMS8 whole entry, looked up): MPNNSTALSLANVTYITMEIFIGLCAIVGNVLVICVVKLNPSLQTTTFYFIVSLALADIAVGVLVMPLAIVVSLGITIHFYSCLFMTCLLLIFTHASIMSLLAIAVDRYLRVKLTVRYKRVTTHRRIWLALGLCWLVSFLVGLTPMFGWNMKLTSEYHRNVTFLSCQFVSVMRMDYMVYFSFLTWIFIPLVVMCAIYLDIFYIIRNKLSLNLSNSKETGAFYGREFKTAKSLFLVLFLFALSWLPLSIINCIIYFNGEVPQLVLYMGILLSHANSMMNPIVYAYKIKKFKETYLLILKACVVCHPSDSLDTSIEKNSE

Compound | inhibition [%]
CCOC(=O)[C@@]12C[C@@H]1[C@@H](n1cnc3c(N(C)C)nc(Cl)nc31)[C@H](O)[C@@H]2O | 30

target: 5-hydroxytryptamine receptor 1B (Homo sapiens) (UniProt P28222); assay: Displacement of [3H]5-CT from human 5-HT1BR expressed in HEK cell membranes at 10 uM incubated for 90 mins under dark condition by microbeta scintillation counting method relative to control; details: HEK293
Sequence (P28222 whole entry): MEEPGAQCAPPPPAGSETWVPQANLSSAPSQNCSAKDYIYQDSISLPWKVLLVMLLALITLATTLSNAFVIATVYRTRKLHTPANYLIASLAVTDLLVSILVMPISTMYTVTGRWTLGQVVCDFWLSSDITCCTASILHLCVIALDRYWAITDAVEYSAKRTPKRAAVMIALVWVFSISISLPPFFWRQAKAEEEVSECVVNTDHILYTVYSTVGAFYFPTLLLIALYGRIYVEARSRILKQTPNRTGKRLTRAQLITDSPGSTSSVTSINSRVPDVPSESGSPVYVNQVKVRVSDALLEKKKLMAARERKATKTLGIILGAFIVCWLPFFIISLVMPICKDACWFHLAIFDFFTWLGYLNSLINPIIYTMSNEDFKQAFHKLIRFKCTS

Compound | inhibition [%]
CCOC(=O)[C@@]12C[C@@H]1[C@@H](n1cnc3c(N(C)C)nc(Cl)nc31)[C@H](O)[C@@H]2O | < 50
Nc1ncnc2c1ncn2[C@@H]1O[C@H](C(=O)NC2CC2)[C@@H](O)[C@H]1O | < 50
CNc1nc(Cl)nc2c1ncn2[C@H]1[C@H](O)[C@H](O)[C@]2(CO)C[C@H]12 | < 50

target: T6, Adenosine receptor A1 (Homo sapiens) (UniProt P30542); assay: Displacement of [3H]N6-phenylisopropyladenosine from recombinant human A1AR expressed in CHO cell membranes at 10 uM after 60 mins by liquid scintillation counting method relative to control; details: not given
T6 sequence (whole entry): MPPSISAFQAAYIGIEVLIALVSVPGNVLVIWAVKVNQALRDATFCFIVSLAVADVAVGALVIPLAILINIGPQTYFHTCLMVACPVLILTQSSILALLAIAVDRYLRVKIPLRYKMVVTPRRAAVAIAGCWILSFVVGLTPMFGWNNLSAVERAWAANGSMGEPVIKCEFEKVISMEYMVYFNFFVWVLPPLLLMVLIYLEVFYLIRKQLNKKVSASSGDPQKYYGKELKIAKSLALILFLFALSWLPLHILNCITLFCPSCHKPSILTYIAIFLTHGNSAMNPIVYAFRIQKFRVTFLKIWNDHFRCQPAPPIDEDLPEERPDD

Compound | inhibition [%]
CCOC(=O)[C@@]12C[C@@H]1[C@@H](n1cnc3c(N(C)C)nc(Cl)nc31)[C@H](O)[C@@H]2O | < 10

target: T7, 5-hydroxytryptamine receptor 1A (Homo sapiens) (UniProt P08908); assay: Displacement of [3H]WAY100635 from human 5-HT1AR expressed in CHO cell membranes at 10 uM incubated for 90 mins under dark condition by microbeta scintillation counting method relative to control; details: not given
T7 sequence (whole entry): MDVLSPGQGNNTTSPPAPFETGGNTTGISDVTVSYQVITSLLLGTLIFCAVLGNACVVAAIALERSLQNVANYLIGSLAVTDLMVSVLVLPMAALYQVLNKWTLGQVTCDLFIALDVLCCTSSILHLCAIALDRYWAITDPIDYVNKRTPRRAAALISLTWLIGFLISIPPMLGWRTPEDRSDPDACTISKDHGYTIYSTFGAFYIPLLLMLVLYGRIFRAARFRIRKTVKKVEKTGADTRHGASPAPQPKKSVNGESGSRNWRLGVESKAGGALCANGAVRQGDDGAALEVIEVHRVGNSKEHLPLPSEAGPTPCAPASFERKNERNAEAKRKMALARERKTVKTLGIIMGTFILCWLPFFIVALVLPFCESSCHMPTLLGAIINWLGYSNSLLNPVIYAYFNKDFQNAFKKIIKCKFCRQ

Compound | inhibition [%]
CCOC(=O)[C@@]12C[C@@H]1[C@@H](n1cnc3c(N(C)C)nc(Cl)nc31)[C@H](O)[C@@H]2O | < 50
Nc1ncnc2c1ncn2[C@@H]1O[C@H](C(=O)NC2CC2)[C@@H](O)[C@H]1O | < 50
CNc1nc(Cl)nc2c1ncn2[C@H]1[C@H](O)[C@H](O)[C@]2(CO)C[C@H]12 | < 50

target: 5-hydroxytryptamine receptor 1E (Homo sapiens) (UniProt P28566); assay: Displacement of [3H]5-HT from human 5-HT1E receptor expressed in HEK cell membranes at 10 uM incubated for 90 mins under dark condition by microbeta scintillation counting method relative to control; details: HEK293
Sequence (P28566 whole entry): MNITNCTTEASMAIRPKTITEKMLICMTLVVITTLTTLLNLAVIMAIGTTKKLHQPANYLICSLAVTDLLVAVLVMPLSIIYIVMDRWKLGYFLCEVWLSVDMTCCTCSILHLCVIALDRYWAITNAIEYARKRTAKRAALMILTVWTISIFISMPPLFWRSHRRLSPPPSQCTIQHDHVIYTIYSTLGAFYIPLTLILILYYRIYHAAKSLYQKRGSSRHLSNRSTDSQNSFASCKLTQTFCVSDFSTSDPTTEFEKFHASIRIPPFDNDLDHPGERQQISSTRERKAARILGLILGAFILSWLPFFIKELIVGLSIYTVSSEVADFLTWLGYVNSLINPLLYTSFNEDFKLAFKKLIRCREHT

Compound | inhibition [%]
CCOC(=O)[C@@]12C[C@@H]1[C@@H](n1cnc3c(N(C)C)nc(Cl)nc31)[C@H](O)[C@@H]2O | < 50
Nc1ncnc2c1ncn2[C@@H]1O[C@H](C(=O)NC2CC2)[C@@H](O)[C@H]1O | < 50
CNc1nc(Cl)nc2c1ncn2[C@H]1[C@H](O)[C@H](O)[C@]2(CO)C[C@H]12 | < 50

target: 5-hydroxytryptamine receptor 7 (Homo sapiens) (UniProt P34969); assay: Displacement of [3H]LSD from human 5-HT7A receptor expressed in HEK cell membranes at 10 uM incubated for 90 mins under dark condition by microbeta scintillation counting method relative to control; details: HEK293
Sequence (P34969 whole entry): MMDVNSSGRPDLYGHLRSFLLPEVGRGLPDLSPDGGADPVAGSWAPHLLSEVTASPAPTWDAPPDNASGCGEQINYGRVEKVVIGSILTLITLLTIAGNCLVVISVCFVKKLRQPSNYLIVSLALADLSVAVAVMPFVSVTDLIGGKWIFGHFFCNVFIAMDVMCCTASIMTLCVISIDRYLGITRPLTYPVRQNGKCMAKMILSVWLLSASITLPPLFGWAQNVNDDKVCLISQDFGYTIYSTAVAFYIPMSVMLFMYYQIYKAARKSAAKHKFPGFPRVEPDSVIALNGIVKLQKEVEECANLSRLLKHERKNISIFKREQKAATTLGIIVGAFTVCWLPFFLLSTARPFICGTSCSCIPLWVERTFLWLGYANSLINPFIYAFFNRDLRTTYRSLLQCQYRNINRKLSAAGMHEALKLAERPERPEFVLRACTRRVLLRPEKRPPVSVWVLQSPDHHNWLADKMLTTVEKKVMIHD

Compound | inhibition [%]
CCOC(=O)[C@@]12C[C@@H]1[C@@H](n1cnc3c(N(C)C)nc(Cl)nc31)[C@H](O)[C@@H]2O | < 50
Nc1ncnc2c1ncn2[C@@H]1O[C@H](C(=O)NC2CC2)[C@@H](O)[C@H]1O | < 50
CNc1nc(Cl)nc2c1ncn2[C@H]1[C@H](O)[C@H](O)[C@]2(CO)C[C@H]12 | < 50

target: 5-hydroxytryptamine receptor 5A (Homo sapiens) (UniProt P47898); assay: Displacement of [3H]LSD from human 5-HT5A receptor expressed in Flp-In-CHO cell membranes incubated for 90 mins under dark condition by microbeta scintillation counting method relative to control; set-up: concentration or dose not given beside the values; details: not given
Sequence (P47898 whole entry): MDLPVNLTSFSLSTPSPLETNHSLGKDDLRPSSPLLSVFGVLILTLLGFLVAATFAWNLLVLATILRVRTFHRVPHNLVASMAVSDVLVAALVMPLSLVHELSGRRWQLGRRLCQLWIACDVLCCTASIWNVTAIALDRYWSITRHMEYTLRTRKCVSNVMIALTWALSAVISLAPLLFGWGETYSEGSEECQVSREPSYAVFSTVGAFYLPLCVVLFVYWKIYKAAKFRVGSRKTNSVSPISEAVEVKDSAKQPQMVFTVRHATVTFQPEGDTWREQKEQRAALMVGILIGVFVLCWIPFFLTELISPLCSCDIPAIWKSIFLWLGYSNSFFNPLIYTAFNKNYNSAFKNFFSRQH

Compound | inhibition [%]
CCOC(=O)[C@@]12C[C@@H]1[C@@H](n1cnc3c(N(C)C)nc(Cl)nc31)[C@H](O)[C@@H]2O | < 50
Nc1ncnc2c1ncn2[C@@H]1O[C@H](C(=O)NC2CC2)[C@@H](O)[C@H]1O | < 50
CNc1nc(Cl)nc2c1ncn2[C@H]1[C@H](O)[C@H](O)[C@]2(CO)C[C@H]12 | < 50

target: 5-hydroxytryptamine receptor 6 (Homo sapiens) (UniProt P50406); assay: Displacement of [3H]LSD from human 5-HT6 receptor expressed in HEK cell membranes at 10 uM incubated for 90 mins under dark condition by microbeta scintillation counting method relative to control; details: HEK293
Sequence (P50406 whole entry): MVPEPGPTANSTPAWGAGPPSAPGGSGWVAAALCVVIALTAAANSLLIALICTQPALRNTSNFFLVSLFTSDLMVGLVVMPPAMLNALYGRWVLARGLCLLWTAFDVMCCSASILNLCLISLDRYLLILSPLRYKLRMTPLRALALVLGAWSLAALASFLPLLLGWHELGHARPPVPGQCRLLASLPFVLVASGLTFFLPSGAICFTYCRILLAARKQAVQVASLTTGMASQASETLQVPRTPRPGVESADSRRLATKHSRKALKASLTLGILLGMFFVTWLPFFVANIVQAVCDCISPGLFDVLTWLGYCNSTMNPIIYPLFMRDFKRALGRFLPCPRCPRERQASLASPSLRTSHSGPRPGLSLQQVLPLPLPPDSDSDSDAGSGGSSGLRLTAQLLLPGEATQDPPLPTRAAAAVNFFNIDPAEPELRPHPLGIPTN

Compound | inhibition [%]
CCOC(=O)[C@@]12C[C@@H]1[C@@H](n1cnc3c(N(C)C)nc(Cl)nc31)[C@H](O)[C@@H]2O | < 50
Nc1ncnc2c1ncn2[C@@H]1O[C@H](C(=O)NC2CC2)[C@@H](O)[C@H]1O | < 50
CNc1nc(Cl)nc2c1ncn2[C@H]1[C@H](O)[C@H](O)[C@]2(CO)C[C@H]12 | < 50

target: T5, 5-hydroxytryptamine receptor 2A; assay: Displacement of [3H]ketanserin from human 5-HT2A receptor expressed in HEK-T cell membranes incubated for 90 mins under dark condition by microbeta scintillation counting method; details: not given

Compound | Ki [µM]
CCOC(=O)[C@@]12C[C@@H]1[C@@H](n1cnc3c(N(C)C)nc(Cl)nc31)[C@H](O)[C@@H]2O | > 10
Nc1ncnc2c1ncn2[C@@H]1O[C@H](C(=O)NC2CC2)[C@@H](O)[C@H]1O | > 10
CNc1nc(Cl)nc2c1ncn2[C@H]1[C@H](O)[C@H](O)[C@]2(CO)C[C@H]12 | > 10

target: 5-hydroxytryptamine receptor 4 (Homo sapiens) (UniProt Q13639); assay: Displacement of [3H]GR113808 from human 5-HT4 receptor at 10 uM incubated for 90 mins under dark condition by microbeta scintillation counting method relative to control; details: not given
Sequence (Q13639 whole entry): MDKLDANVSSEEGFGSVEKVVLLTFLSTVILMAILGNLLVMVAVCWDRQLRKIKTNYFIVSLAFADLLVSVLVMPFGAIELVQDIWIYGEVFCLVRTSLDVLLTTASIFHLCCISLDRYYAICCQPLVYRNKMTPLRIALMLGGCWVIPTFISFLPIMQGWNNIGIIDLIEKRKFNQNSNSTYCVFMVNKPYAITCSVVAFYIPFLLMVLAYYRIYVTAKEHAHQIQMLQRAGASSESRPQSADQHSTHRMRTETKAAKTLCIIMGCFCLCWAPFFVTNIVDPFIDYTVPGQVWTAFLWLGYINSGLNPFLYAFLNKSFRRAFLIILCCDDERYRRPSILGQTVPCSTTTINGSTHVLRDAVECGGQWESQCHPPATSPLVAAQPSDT

Compound | inhibition [%]
CCOC(=O)[C@@]12C[C@@H]1[C@@H](n1cnc3c(N(C)C)nc(Cl)nc31)[C@H](O)[C@@H]2O | < 50
Nc1ncnc2c1ncn2[C@@H]1O[C@H](C(=O)NC2CC2)[C@@H](O)[C@H]1O | < 50
CNc1nc(Cl)nc2c1ncn2[C@H]1[C@H](O)[C@H](O)[C@]2(CO)C[C@H]12 | < 50
